{"source": "PubChem BioAssay AID1506", "about": "(NMMLSC, 2009)", "tested_on": "S. aureus strains, lipase production inhibition", "experiment": "quorum-sensing-driven lipase output in S. aureus strains – NM300, NM400, MRSA3757, S. aureus quorum sensing inhibitors (AID 1506)", "details": "for inhibition: stronger effect = higher value", "key": {"[1]": {"details": "lipase inhibition, MRSA3757, at 12 µM"}, "[2]": {"details": "lipase inhibition, strain NM400, at 12 µM"}}, "note": "The source made the active and inactive calls. How the calls were made is not given here.", "data": [{"smiles": "Cc1c(Cl)cccc1Nc1ccccc1C(=O)O", "values": [{"measurement": "inhibition", "setting": "at 30 µM", "result": 80, "unit": "%"}, {"measurement": "inhibition", "setting": "lipase inhibition, strain NM300, at 30 µM", "result": 90, "unit": "%"}]}, {"smiles": "CC1CCCN(C(C(=O)Nc2ccc3c(c2)OCCO3)c2ccccc2)C1", "note": "(stereo not given)", "values": [{"measurement": "outcome", "setting": "at 12 µM", "result": "inactive; agr3 active"}, {"measurement": "inhibition", "setting": "[1]", "result": 0, "unit": "%"}, {"measurement": "inhibition", "setting": "[2]", "result": 68, "unit": "%"}]}, {"smiles": "CC1CCCN(C(C(=O)Nc2ccc3c(c2)OCO3)c2ccccc2)C1", "note": "(stereo not given)", "values": [{"measurement": "outcome", "setting": "at 12 µM", "result": "inactive; agr3 active"}, {"measurement": "inhibition", "setting": "[1]", "result": 0, "unit": "%"}, {"measurement": "inhibition", "setting": "[2]", "result": 84, "unit": "%"}]}, {"smiles": "CCc1oc2ccccc2c1C(=O)c1cc(Br)c(O)c(Br)c1", "values": [{"measurement": "inhibition", "setting": "at 6 µM", "result": 80, "unit": "%"}, {"measurement": "inhibition", "setting": "lipase inhibition, strain NM300, at 6 µM", "result": 95, "unit": "%"}]}]}
